Data: PMC13065040 (PLOS One, 2026)
pIC50: −log10 of the molar value. Entries after “also recorded” stand apart in the source; their conditions may differ.

Key:
MMP-2 [1] = biological target: T1, MMP-2 (Homo sapiens, UniProt P08253); assay: MMP-2 inhibition assay (Enzo kit, OmniMMP RED fluorogenic substrate); type: biochemical
T1 construct: purchased Enzo Life Sciences (MMP-2 drug discovery kit)
Experimental: The MMP-2 inhibition assay was performed using the Enzo Life Sciences MMP-2 drug discovery kit. and the quenched fluorogenic substrate OmniMMP RED. Reference substrate was diluted to a final concentration of 5 μM, while the MMP-2 enzyme was diluted to 58 mU/µL, and the N-Isobutyl-N-(4-methoxyphenylsulfonyl)glycyl hydroxamic acid (NNGH) inhibitor was diluted to a concentration of 1/200 in assay buffer. […] The assay was performed using a black 96-well microplate. Fluorescence was measured at excitation/emission wavelengths of 545/576 nm, with a cutoff at 570 nm using Gen5 microplate reader (BioTeK, Shoreline, WA). Baseline fluorescence was recorded before adding NNGH inhibitor which was used as a positive control for MMP-2 inhibition. Reaction mixtures in the plate were incubated at 37 °C for 10 min, and fluorescence was measured at 10 min intervals for the first 30 min, then at 30 min intervals until 2 h had elapsed. […] Statistical analysis was performed using ANOVA with GraphPad Prism software, version 10.0.3.

MMP-2 [2] = biological target: T2, MMP-2 (Homo sapiens, UniProt P08253); assay: Differential scanning fluorimetry (DSF); type: binding; design: Dtm (ΔTm): unit not given here; conditions: for Dtm (ΔTm), average / Tm of MMP-2 with peptide, average: average of replicates; for Dtm (ΔTm) / Tm of MMP-2 with peptide: CTX experiment
T2 construct: ProSpec Bio; Antibodies-Online; Elabscience; Abcam ENZ-769; ABIN7400042; PKSH033450
T2 sequence (P08253 110-660): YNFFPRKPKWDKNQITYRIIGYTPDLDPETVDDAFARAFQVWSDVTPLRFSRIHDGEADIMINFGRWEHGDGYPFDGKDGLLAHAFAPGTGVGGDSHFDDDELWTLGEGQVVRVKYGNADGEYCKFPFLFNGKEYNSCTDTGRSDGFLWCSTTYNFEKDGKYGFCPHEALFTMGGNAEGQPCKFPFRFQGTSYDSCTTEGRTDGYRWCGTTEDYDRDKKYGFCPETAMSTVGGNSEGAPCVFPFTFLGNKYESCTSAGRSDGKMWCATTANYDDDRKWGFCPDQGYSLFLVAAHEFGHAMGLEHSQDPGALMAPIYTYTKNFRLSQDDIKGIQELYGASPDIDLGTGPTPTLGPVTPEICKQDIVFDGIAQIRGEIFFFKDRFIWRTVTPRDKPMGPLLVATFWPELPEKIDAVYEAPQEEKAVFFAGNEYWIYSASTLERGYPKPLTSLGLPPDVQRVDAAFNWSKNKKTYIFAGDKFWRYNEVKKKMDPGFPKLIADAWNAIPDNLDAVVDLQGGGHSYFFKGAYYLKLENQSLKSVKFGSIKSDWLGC
Experimental: The melting temperatures (Tm) of recombinant MMP-2 and its complexes with peptides were ascertained using BioRad CFX384 Touch real-time PCR (Hercules, CA, USA). The experiments were performed as previously described. The unfolding of the protein was detected using the fluorescent SYPRO-orange dye (Invitrogen, Carlsbad, CA, USA). MMP-2 and prospective ligand peptides were dissolved in 7.1 pH phosphate buffered saline (154 mM NaCl, 5.6 mM Na2PO4, 1.1 mM KH2PO4), and the reaction mixture was made to a final concentration of 1 µM of protein, either 30 µM ([…]) of peptide, and 1000x dilution of the SYPRO-Orange dye stock from the manufacturer. Excitation and emission filters of the dye were set at 450 − 490 nm and 560 − 580 nm, respectively. The temperature for the reaction was held at 25 °C for 5 min, and then a gradient of 25 °C to 95 °C was applied at a rate of 0.3 °C/min, and the fluorescence was recorded. To determine Tm of the protein, the first derivatives of melting curves were plotted using GraphPad Prism software, version 10.0.3.

GBM cells = conditions: read-out: IC50, inhibition of migration of GBM cells; cited from earlier work
Description: Ctx (Fig 2) is a 36-residue polypeptide from the scorpion Leiurus quinquestriatus. Ctx contains 8 cysteinyl residues, forming 4 disulfide bridges which help to stabilize its three-dimensional structure. […] However, conflicting data on the effects of Ctx on the glioma-specific chloride channel makes it difficu ...

Chlorotoxin [Ctx]
MMP-2 enzymatic activity, percent of control (MMP-2 [1]; Ctx 1 µM, replicate 1): 118.933 | MMP-2 enzymatic activity, percent of control (MMP-2 [1]; Ctx 1 µM, replicate 2): 112.076 | MMP-2 enzymatic activity, percent of control (MMP-2 [1]; Ctx 1 µM, replicate 3): 102.494 | MMP-2 enzymatic activity, percent of control (MMP-2 [1]; Ctx 1 µM, replicate 4): 91.6233 | MMP-2 enzymatic activity, percent of control (MMP-2 [1]; Ctx 1 µM, replicate 5): 88.1016 | MMP-2 enzymatic activity, percent of control (MMP-2 [1]; Ctx 1 µM, replicate 6): 107.77 | MMP-2 enzymatic activity, percent of control (MMP-2 [1]; Ctx 1 µM, replicate 7): 112.009 | MMP-2 enzymatic activity, percent of control (MMP-2 [1]; Ctx 1 µM, replicate 8): 115.93 | MMP-2 enzymatic activity, percent of control (MMP-2 [1]; Ctx 5 µM, replicate 1): 109.471 | MMP-2 enzymatic activity, percent of control (MMP-2 [1]; Ctx 5 µM, replicate 2): 117.657 | MMP-2 enzymatic activity, percent of control (MMP-2 [1]; Ctx 5 µM, replicate 3): 107.159 | MMP-2 enzymatic activity, percent of control (MMP-2 [1]; Ctx 5 µM, replicate 4): 113.75 | MMP-2 enzymatic activity, percent of control (MMP-2 [1]; Ctx 5 µM, replicate 5): 100.089 | MMP-2 enzymatic activity, percent of control (MMP-2 [1]; Ctx 5 µM, replicate 6): 108.86 | MMP-2 enzymatic activity, percent of control (MMP-2 [1]; Ctx 5 µM, replicate 7): 121.511 | MMP-2 enzymatic activity, percent of control (MMP-2 [1]; Ctx 5 µM, replicate 8): 108.966 | MMP-2 enzymatic activity, percent of control (MMP-2 [1]; Ctx 10 µM, replicate 1): 86.2677 | MMP-2 enzymatic activity, percent of control (MMP-2 [1]; Ctx 10 µM, replicate 2): 99.1052 | MMP-2 enzymatic activity, percent of control (MMP-2 [1]; Ctx 10 µM, replicate 3): 97.4706 | MMP-2 enzymatic activity, percent of control (MMP-2 [1]; Ctx 10 µM, replicate 4): 94.5071 | MMP-2 enzymatic activity, percent of control (MMP-2 [1]; Ctx 10 µM, replicate 5): 60.0877 | MMP-2 enzymatic activity, percent of control (MMP-2 [1]; Ctx 10 µM, replicate 6): 92.3409 | MMP-2 enzymatic activity, percent of control (MMP-2 [1]; Ctx 10 µM, replicate 7): 113.684 | MMP-2 enzymatic activity, percent of control (MMP-2 [1]; Ctx 10 µM, replicate 8): 106.8 | MMP-2 enzymatic activity, percent of control (MMP-2 [1]; Ctx 15 µM, replicate 1): 86.879 | MMP-2 enzymatic activity, percent of control (MMP-2 [1]; Ctx 15 µM, replicate 2): 110.627 | MMP-2 enzymatic activity, percent of control (MMP-2 [1]; Ctx 15 µM, replicate 3): 103.344 | MMP-2 enzymatic activity, percent of control (MMP-2 [1]; Ctx 15 µM, replicate 4): 104.062 | MMP-2 enzymatic activity, percent of control (MMP-2 [1]; Ctx 15 µM, replicate 5): 43.5824 | MMP-2 enzymatic activity, percent of control (MMP-2 [1]; Ctx 15 µM, replicate 6): 117.856 | MMP-2 enzymatic activity, percent of control (MMP-2 [1]; Ctx 15 µM, replicate 7): 126.92 | MMP-2 enzymatic activity, percent of control (MMP-2 [1]; Ctx 15 µM, replicate 8): 120.528 | MMP-2 enzymatic activity, percent of control (MMP-2 [1]; Ctx 20 µM, replicate 1): 134.561 | MMP-2 enzymatic activity, percent of control (MMP-2 [1]; Ctx 20 µM, replicate 2): 108.926 | MMP-2 enzymatic activity, percent of control (MMP-2 [1]; Ctx 20 µM, replicate 3): 139.252 | MMP-2 enzymatic activity, percent of control (MMP-2 [1]; Ctx 20 µM, replicate 4): 98.6135 | MMP-2 enzymatic activity, percent of control (MMP-2 [1]; Ctx 20 µM, replicate 5): 53.8949 | MMP-2 enzymatic activity, percent of control (MMP-2 [1]; Ctx 20 µM, replicate 6): 135.226 | MMP-2 enzymatic activity, percent of control (MMP-2 [1]; Ctx 20 µM, replicate 7): 133.352 | MMP-2 enzymatic activity, percent of control (MMP-2 [1]; Ctx 20 µM, replicate 8): 121.591 | inhibition of MMP-2 enzymatic activity (Fig 10A) (MMP-2 [1]; Ctx at 1, 5, 10, 15 and 20 µM, compared to control inhibitor): did not inhibit; also recorded: not statistically significant | inhibition of MMP-2 enzymatic activity (Fig 10B) (MMP-2 [1]; peptides at 1 µM, 50 µM and 100 µM, one-way ANOVA vs control): not statistically significant | Dtm (ΔTm), average (MMP-2 [2]; peptide 30 (µM per method)): 2.368e-15 | Tm of MMP-2 with peptide, average (MMP-2 [2]; peptide 30 (µM per method)): 47.7 | Dtm (ΔTm) (MMP-2 [2]; peptide 30, replicate 1): -0.2 | Tm of MMP-2 with peptide (MMP-2 [2]; peptide 30, replicate 1): 47.5 °C | Dtm (ΔTm) (MMP-2 [2]; peptide 30, replicate 2): 0.1 | Tm of MMP-2 with peptide (MMP-2 [2]; peptide 30, replicate 2): 47.8 °C | Dtm (ΔTm) (MMP-2 [2]; peptide 30, replicate 3): 0.1 | Tm of MMP-2 with peptide (MMP-2 [2]; peptide 30, replicate 3): 47.8 °C | Dtm (ΔTm), average (MMP-2 [2]; peptide 50 (µM per method)): -0.2 | Tm of MMP-2 with peptide, average (MMP-2 [2]; peptide 50 (µM per method)): 47.5 | Dtm (ΔTm) (MMP-2 [2]; peptide 50, replicate 1): -0.2 | Tm of MMP-2 with peptide (MMP-2 [2]; peptide 50, replicate 1): 47.5 °C | Dtm (ΔTm) (MMP-2 [2]; peptide 50, replicate 2): -0.2 | Tm of MMP-2 with peptide (MMP-2 [2]; peptide 50, replicate 2): 47.5 °C | Dtm (ΔTm) (MMP-2 [2]; peptide 50, replicate 3): -0.2 | Tm of MMP-2 with peptide (MMP-2 [2]; peptide 50, replicate 3): 47.5 °C | pIC50 (GBM cells): 6.74
